# Assay results published in ChEMBL document CHEMBL1123432, “Methotrexate analogues. 28. Synthesis and biological evaluation of new gamma-monoamides of aminopterin and methotrexate” (J Med Chem, 1986).
# Several values for one entry are separate records, joined by “and”; a condition that tells them apart may be missing. Equal entries are not always repeated.
# Assays:
# [1] = system: L1210; assay: Compound was tested for its inhibitory concentration to inhibit the growth of wild type L1210 cells.; format: functional, cell-based, Mus musculus
# [2] = species on record: Mus musculus; assay: Compound was tested against weight change in mice with L1210 leukemia cells on 10 th Day at Dose 70 mg / kg; conditions: at 70 mg/kg
# [3] = species on record: Mus musculus; assay: Compound was tested against weight change in mice with L1210 leukemia cells on 10 th Day at Dose 60 mg / kg; conditions: at 60 mg/kg
# [4] = system: Mus musculus; assay: Increase in life span of mice with L1210 leukemia cells at a dose of 80 mg/kg; Toxic; format: functional, organism-based; design: dose 80 mg/kg
# [5] = system: Mus musculus; assay: Increase in life span of mice with L1210 leukemia cells at a dose of 80 mg/kg; format: functional
# [6] = system: L1210; assay: Compound was tested for its inhibitory concentration to inhibit the growth of wild type L1210 cells and a subline (L1210 / R81).; format: functional, cell-based; conditions: Mus musculus
# [7] = system: Mus musculus; assay: Increase in life span of mice with L1210 leukemia cells at a dose of 50 mg/kg; format: functional
# [8] = species on record: Mus musculus; assay: Compound was tested against weight change in mice with L1210 leukemia cells on 10 th Day at Dose 50 mg / kg; conditions: at 50 mg/kg
# [9] = target: T1, Dihydrofolate reductase (Mus musculus, UniProt P00375); assay: biochemical
# T1 sequence (P00375 whole entry): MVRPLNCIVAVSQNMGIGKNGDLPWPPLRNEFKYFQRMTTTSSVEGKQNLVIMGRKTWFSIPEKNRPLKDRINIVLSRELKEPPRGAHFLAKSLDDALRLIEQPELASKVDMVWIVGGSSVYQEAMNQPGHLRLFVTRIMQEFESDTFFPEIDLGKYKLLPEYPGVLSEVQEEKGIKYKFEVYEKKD
# Description: Compound was tested for its inhibitory concentration to inhibit the enzyme Dihydro Folate Reductase (DHFR) from murine L1210 leukemia cells.
# [10] = target: T2, Dihydrofolate reductase (Mus musculus) (UniProt P00375); conditions: L1210
# T2 sequence (whole entry): T1 sequence (P00375 whole entry)
# Description: Compound was tested for inhibition of the enzyme DiHydroFolate Reductase (DHFR) from murine L1210 leukemia cells
# [11] = system: Mus musculus; assay: Median Survival days of mice infected with L1210 leukemia cells at dose 60 mg/kg relative to that of 10 days for control; format: functional
# [12] = system: Mus musculus; assay: Median Survival days of mice infected with L1210 leukemia cells at dose 70 mg/kg relative to that of 10 days for control; Toxic; format: functional, organism-based; design: dose 70 mg/kg
# [13] = system: Mus musculus; assay: Median Survival days of mice infected with L1210 leukemia cells at dose 70 mg/kg relative to that of 10 days for control; format: functional
# [14] = system: Mus musculus; assay: Median Survival days of mice infected with L1210 leukemia cells at dose 50 mg/kg relative to that of 10 days for control; format: functional
# [15] = species on record: Mus musculus; assay: Compound was tested against weight change in mice with L1210 leukemia cells on 10 th Day at Dose 80 mg / kg; conditions: at 80 mg/kg
# [16] = system: Mus musculus; assay: Median Survival days of mice infected with L1210 leukemia cells at dose 40 mg/kg relative to that of 9 days for control; format: functional
# [17] = system: Mus musculus; assay: Median Survival days of mice infected with L1210 leukemia cells at dose 20 mg/kg relative to that of 9 days for control; format: functional
# [18] = species on record: Homo sapiens; assay: Compound was tested for its inhibitory concentration against human leukemic lymphoblasts (CEM Cells) and a resistant subline (CEM / MTX).; format: functional; conditions: CCRF-CEM
# [19] = system: Mus musculus; assay: Increase in life span of mice with L1210 leukemia cells at a dose of 40 mg/kg; format: functional
# [20] = species on record: Homo sapiens; assay: Compound was tested for its inhibitory concentration against human leukemic lymphoblasts (CEM Cells).; format: functional; conditions: CCRF-CEM
# [21] = system: Mus musculus; assay: Median Survival days of mice infected with L1210 leukemia cells at dose 80 mg/kg relative to that of 9 days for control; format: functional
# [22] = system: Mus musculus; assay: Increase in life span of mice with L1210 leukemia cells at a dose of 20 mg/kg; format: functional
# [23] = species on record: Homo sapiens; assay: Compound was tested for its inhibitory concentration against human leukemic lymphoblasts (CEM Cells); Mean of two assays; format: functional; conditions: CCRF-CEM
# [24] = system: L1210; assay: Compound was tested for its inhibitory concentration to inhibit the growth of wild type L1210 cells and a subline (L1210 / R81); Mean of two assays; format: functional, cell-based; conditions: Mus musculus
# [25] = species on record: Mus musculus; assay: Compound was tested against weight change in mice with L1210 leukemia cells on 10 th Day at Dose 20 mg / kg; conditions: at 20 mg/kg
# [26] = species on record: Mus musculus; assay: Compound was tested against weight change in mice with L1210 leukemia cells on 10 th Day at Dose 40 mg / kg; conditions: at 40 mg/kg
# [27] = system: L1210; assay: Compound was tested for its inhibitory concentration to inhibit the growth of wild type L1210 cells; format: functional, cell-based; conditions: Mus musculus
# [28] = system: Mus musculus; assay: Increase in life span of mice with L1210 leukemia cells at a dose of 40 mg/kg in expt 1; format: functional
# [29] = system: Mus musculus; assay: Increase in life span of mice with L1210 leukemia cells at a dose of 100 mg/kg in expt 1; format: functional
# [30] = system: Mus musculus; assay: Median Survival days of mice infected with L1210 leukemia cells at dose 100 mg/kg relative to that of 9 days for control in expt 2; format: functional
# [31] = system: Mus musculus; assay: Median Survival days of mice infected with L1210 leukemia cells at dose 80 mg/kg relative to that of 9 days for control in expt 2; format: functional
# [32] = system: Mus musculus; assay: Increase in life span of mice with L1210 leukemia cells at a dose of 60 mg/kg in expt 1; format: functional
# [33] = system: Mus musculus; assay: Median Survival days of mice infected with L1210 leukemia cells at dose 80 mg/kg relative to that of 9 days for control in expt 1; format: functional
# [34] = species on record: Mus musculus; assay: Compound was tested against weight change in mice with L1210 leukemia cells on 7 th Day at Dose 100 mg / kg; format: functional; conditions: at 100 mg/kg
# [35] = system: Mus musculus; assay: Median Survival days of mice infected with L1210 leukemia cells at dose 20 mg/kg relative to that of 9 days for control in expt 1; format: functional
# [36] = system: Mus musculus; assay: Increase in life span of mice with L1210 leukemia cells at a dose of 80 mg/kg in expt 1; format: functional
# [37] = system: Mus musculus; assay: Median Survival days of mice infected with L1210 leukemia cells at dose 60 mg/kg relative to that of 9 days for control in expt 2; format: functional
# [38] = system: Mus musculus; assay: Median Survival days of mice infected with L1210 leukemia cells at dose 40 mg/kg relative to that of 9 days for control in expt 1; format: functional
# [39] = system: L1210; assay: Compound was tested for its inhibitory concentration to inhibit the growth of wild type L1210 cells; Mean of four separate assays; format: functional, cell-based; conditions: Mus musculus
# [40] = system: Mus musculus; assay: Increase in life span of mice with L1210 leukemia cells at a dose of 80 mg/kg in expt 2; Toxic; format: functional, organism-based; design: dose 80 mg/kg
# [41] = system: Mus musculus; assay: Increase in life span of mice with L1210 leukemia cells at a dose of 40 mg/kg in expt 2; Toxic; format: functional, organism-based; design: dose 40 mg/kg
# [42] = system: Mus musculus; assay: Increase in life span of mice with L1210 leukemia cells at a dose of 80 mg/kg in expt 2; format: functional
# [43] = system: Mus musculus; assay: Median Survival days of mice infected with L1210 leukemia cells at dose 80 mg/kg relative to that of 9 days for control in expt 1; Toxic; format: functional, organism-based; design: dose 80 mg/kg
# [44] = species on record: Mus musculus; assay: Compound was tested against weight change in mice with L1210 leukemia cells on 7 th Day at Dose 10 mg / kg; format: functional; conditions: at 10 mg/kg
# [45] = system: Mus musculus; assay: Median Survival days of mice infected with L1210 leukemia cells at dose 40 mg/kg relative to that of 9 days for control in expt 1; Toxic; format: functional, organism-based; design: dose 40 mg/kg
# [46] = system: Mus musculus; assay: Median Survival days of mice infected with L1210 leukemia cells at dose 10 mg/kg relative to that of 9 days for control in expt 1; format: functional
# [47] = system: Mus musculus; assay: Increase in life span of mice with L1210 leukemia cells at a dose of 10 mg/kg in expt 1; format: functional
structure (smiles),measurement,setting,value
Nc1nc(N)c2nc(CNc3ccc(C(=O)NC(CCC(=O)NCc4ccc(Cl)c(Cl)c4)C(=O)O)cc3)cnc2n1 (centres undefined),IC50,"[1]; Mus musculus, L1210",46 nM
same,IC50,[1]; l1210,34 nM
same,Weight change,[2],-3%
same,Weight change,[3],0%
same,ILS,[4],Toxic
same,ILS at 80 mg/kg,[5],50%
same,IC50,[6],32000 nM
same,ILS at 50 mg/kg,[7],70%
same,Weight change,[8],2%
same,IC50,[9],130 nM
same,IC50/[E],[10],3.3
same,Survival,[11],17 days
same,Survival,[12],Toxic
same,Survival,[13],21 days
same,Survival,[14],15 days
same,Weight change,[15],-16%
Nc1nc(N)c2nc(CNc3ccc(C(=O)NC(CCC(=O)N[C@]45C[C@H]6C[C@H](C[C@H](C6)C4)C5)C(=O)O)cc3)cnc2n1 (some centres undefined),IC50,"[1]; Mus musculus, L1210",680 nM
same,IC50,[1]; l1210,510 nM
same,Survival,[16],9 days
same,ILS at 80 mg/kg,[5],22%
same,Survival,[17],8 days
same,IC50,[6],25000 nM
same,IC50,[9],100 nM
same,IC50/[E],[10],2.5
same,IC50,[18],16000 nM
same,ILS at 40 mg/kg,[19],0%
same,IC50,[20],4500 nM
same,Survival,[21],10 days
same,ILS at 20 mg/kg,[22],-11%
same,Weight change,[15],17%
CC(C)(C)NC(=O)CCC(NC(=O)c1ccc(NCc2cnc3nc(N)nc(N)c3n2)cc1)C(=O)O (centres undefined),IC50,[23],5800 nM
same,IC50,"[1]; Mus musculus, L1210",120 nM
same,Survival,[16],10 days
same,ILS at 80 mg/kg,[5],22%
same,IC50,[24],22000 nM
same,Survival,[17],9 days
same,IC50,[9],44 nM
same,IC50/[E],[10],1.1
same,Weight change,[25],17%
same,IC50,[18],36000 nM
same,ILS at 40 mg/kg,[19],11%
same,Survival,[21],11 days
same,ILS at 20 mg/kg,[22],0%
same,Weight change,[26],7%
same,Weight change,[15],9%
same,IC50,[27],32 nM
CN(Cc1cnc2nc(N)nc(N)c2n1)c1ccc(C(=O)NC(CCC(=O)Nc2ccc3c(c2)OCO3)C(=O)O)cc1 (centres undefined),IC50,"[1]; Mus musculus, L1210",2.9 nM
same,Weight change,[3],3%
same,ILS at 40 mg/kg,[28],78%
same,ILS at 100 mg/kg,[29],78%
same,Survival,[30],16 days
same,IC50,[6],25000 nM
same,Survival,[31],16 days
same,IC50,[9],42 nM
same,IC50/[E],[10],1.1
same,ILS at 60 mg/kg,[32],56%
same,Weight change,[25],11%
same,Survival,[33],15 days
same,Weight change,[34],1%
same,Survival,[35],11 days
same,ILS at 80 mg/kg,[36],67%
same,Survival,[37],14 days
same,Survival,[38],13 days
same,Weight change,[26],10%
same,Weight change,[15],6% and -5%
Nc1nc(N)c2nc(CNc3ccc(C(=O)NC(CCC(=O)Nc4ccc5c(c4)OCO5)C(=O)O)cc3)cnc2n1 (centres undefined),IC50,[39],0.39 nM
same,IC50,"[1]; Mus musculus, L1210",3.2 nM
same,IC50,[6],28000 nM
same,ILS,[40],Toxic
same,IC50,[9],45 nM
same,IC50/[E],[10],1.1
same,Weight change,[25],3%
same,ILS,[41],Toxic
same,IC50,[18],1000 nM
same,ILS at 80 mg/kg,[42],33%
same,Survival,[43],Toxic
same,Survival,[35],14 days
same,Weight change,[44],7%
same,IC50,[20],140 nM
same,Survival,[45],Toxic
same,Weight change,[26],-20%
same,Survival,[46],12 days
same,Weight change,[15],-26%
same,ILS at 10 mg/kg,[47],56%
